Values after ≈ are worked out from the molar mass of the structure shown. Active and inactive are the calls of the source. The rule behind the calls is not given here.
Columns and labels:
Pseudomonas aeruginosa [1] = assay: Synergistic antibacterial activity against Pseudomonas aeruginosa 12-1 assessed as aztreonam MIC in CAMH broth medium supplemented with 20.99 to 21.09 mM Mg2+ by checkerboard assay; assay type: functional
Pseudomonas aeruginosa [2] = assay: Antibacterial activity against Pseudomonas aeruginosa 13-3 assessed as inhibition of bacterial growth incubated for 18 hrs by agar dilution method; assay type: functional
Pseudomonas aeruginosa [3] = assay: Antibacterial activity against Pseudomonas aeruginosa 23-Y372 assessed as inhibition of bacterial growth incubated for 18 hrs by agar dilution method; assay type: functional
Pseudomonas aeruginosa [4] = assay: Synergistic antibacterial activity against Pseudomonas aeruginosa 23-Y417 assessed as aztreonam MIC at 128 ug/ml incubated for 18 hrs by checkerboard method; assay type: functional; conditions: dose 128 µg/ml
Pseudomonas aeruginosa [5] = assay: Synergistic antibacterial activity against Pseudomonas aeruginosa 23-Y511 assessed as aztreonam MIC at 128 ug/ml incubated for 18 hrs by checkerboard method; assay type: functional; conditions: dose 128 µg/ml
Pseudomonas aeruginosa [6] = assay: Synergistic antibacterial activity against Pseudomonas aeruginosa 16-11 assessed as aztreonam MIC in CAMH broth medium supplemented with 20.99 to 21.09 mM Mg2+ by checkerboard assay; assay type: functional
Pseudomonas aeruginosa [7] = assay: Antibacterial activity against Pseudomonas aeruginosa 16-11 assessed as inhibition of bacterial growth incubated for 18 hrs by agar dilution method; assay type: functional
Pseudomonas aeruginosa [8] = assay: Antibacterial activity against Pseudomonas aeruginosa 21-7 assessed as inhibition of bacterial growth incubated for 18 hrs by agar dilution method; assay type: functional
Pseudomonas aeruginosa [9] = assay: Inhibition of Pseudomonas aeruginosa 26 MexAB-OprM assessed as accumulation of Hoechst […] at 64 ug/ml; conditions: dose 64.0 µg/ml
Pseudomonas aeruginosa [10] = assay: Antibacterial activity against Pseudomonas aeruginosa PAO1 at 128 ug/ml measured upto 24 hrs in presence of aztreonam by time-kill assay; assay type: functional, organism-based; conditions: dose 128.0 µg/ml
Pseudomonas aeruginosa [11] = assay: Antibacterial activity against Pseudomonas aeruginosa PAO1 assessed as decrease in log10 CFU at 128 ug/ml measured after 24 hrs in presence of aztreonam by time-kill assay; assay type: functional; conditions: dose 128 µg/ml
Pseudomonas aeruginosa [12] = assay: Antibacterial activity against Pseudomonas aeruginosa 12-1 assessed as inhibition of bacterial growth incubated for 18 hrs by agar dilution method; assay type: functional
Pseudomonas aeruginosa [13] = assay: Antibacterial activity against Pseudomonas aeruginosa 23-Y539 assessed as inhibition of bacterial growth incubated for 18 hrs by agar dilution method; assay type: functional
Pseudomonas aeruginosa [14] = assay: Synergistic antibacterial activity against Pseudomonas aeruginosa 21-7 assessed as aztreonam MIC at 128 ug/ml incubated for 18 hrs by checkerboard method; assay type: functional; conditions: dose 128 µg/ml
Pseudomonas aeruginosa [15] = assay: Synergistic antibacterial activity against Pseudomonas aeruginosa 16-11 assessed as aztreonam MIC in CAMH broth medium supplemented with 0.41 to 0.51 mM Mg2+ by checkerboard assay; assay type: functional
Pseudomonas aeruginosa [16] = assay: Synergistic antibacterial activity against Pseudomonas aeruginosa 23-Y372 assessed as aztreonam MIC at 128 ug/ml incubated for 18 hrs by checkerboard method; assay type: functional; conditions: dose 128 µg/ml
Pseudomonas aeruginosa [17] = assay: Antibacterial activity against Pseudomonas aeruginosa 13-17 assessed as inhibition of bacterial growth incubated for 18 hrs by agar dilution method; assay type: functional
Pseudomonas aeruginosa [18] = assay: Synergistic antibacterial activity against Pseudomonas aeruginosa PAO1 assessed as aztreonam MIC in CAMH broth medium supplemented with 20.99 to 21.09 mM Mg2+ by checkerboard assay; assay type: functional
Pseudomonas aeruginosa [19] = assay: Synergistic antibacterial activity against Pseudomonas aeruginosa 21-2 assessed as aztreonam MIC at 128 ug/ml incubated for 18 hrs by checkerboard method; assay type: functional; conditions: dose 128 µg/ml
Pseudomonas aeruginosa [20] = assay: Synergistic antibacterial activity against Pseudomonas aeruginosa 21-8 assessed as aztreonam MIC at 128 ug/ml incubated for 18 hrs by checkerboard method; assay type: functional; conditions: dose 128 µg/ml
Pseudomonas aeruginosa [21] = assay: Synergistic antibacterial activity against Pseudomonas aeruginosa PAO1 assessed as aztreonam MIC in CAMH broth medium supplemented with 0.41 to 0.51 mM Mg2+ by checkerboard assay; assay type: functional
Pseudomonas aeruginosa [22] = assay: Antibacterial activity against Pseudomonas aeruginosa 13-35 assessed as inhibition of bacterial growth incubated for 18 hrs by agar dilution method; assay type: functional
Pseudomonas aeruginosa [23] = assay: Synergistic antibacterial activity against Pseudomonas aeruginosa PAO1 assessed as aztreonam MIC at 128 ug/ml incubated for 18 hrs by checkerboard method; assay type: functional; conditions: dose 128 µg/ml
Pseudomonas aeruginosa [24] = assay: Synergistic antibacterial activity against Pseudomonas aeruginosa 13-3 assessed as aztreonam MIC at 128 ug/ml incubated for 18 hrs by checkerboard method; assay type: functional; conditions: dose 128 µg/ml
Pseudomonas aeruginosa [25] = assay: Synergistic antibacterial activity against Pseudomonas aeruginosa 13-35 assessed as aztreonam MIC at 128 ug/ml incubated for 18 hrs by checkerboard method; assay type: functional; conditions: dose 128 µg/ml
Pseudomonas aeruginosa [26] = assay: Synergistic antibacterial activity against Pseudomonas aeruginosa 19-46 assessed as aztreonam MIC at 128 ug/ml incubated for 18 hrs by checkerboard method; assay type: functional; conditions: dose 128 µg/ml
Pseudomonas aeruginosa [27] = assay: Synergistic antibacterial activity against Pseudomonas aeruginosa 23-Y539 assessed as aztreonam MIC at 128 ug/ml incubated for 18 hrs by checkerboard method; assay type: functional; conditions: dose 128 µg/ml
Pseudomonas aeruginosa [28] = assay: Synergistic antibacterial activity against Pseudomonas aeruginosa 16-11 assessed as aztreonam MIC at 128 ug/ml incubated for 18 hrs by checkerboard method; assay type: functional; conditions: dose 128 µg/ml
Pseudomonas aeruginosa [29] = assay: Antibacterial activity against Pseudomonas aeruginosa 19-55 assessed as inhibition of bacterial growth incubated for 18 hrs by agar dilution method; assay type: functional

In the case of `NCCC[C@H](NC(=O)C[C@@H](N)Cc1ccccc1)C(=O)Nc1ccc2ccccc2c1`, the MIC (Pseudomonas aeruginosa [1]) is reported as 64 µg/mL, the MIC (Pseudomonas aeruginosa [2]) is reported as 512 µg/mL (≈ 1220 µM) and the MIC (Pseudomonas aeruginosa [3]) is reported as 512 µg/mL (≈ 1220 µM). The MIC (Pseudomonas aeruginosa [4]) was 8 µg/mL, the MIC (Pseudomonas aeruginosa [5]) was 16 µg/mL and the MIC (Pseudomonas aeruginosa [6]) was 8 µg/mL. For the same compound, the MIC (Pseudomonas aeruginosa [7]) was 512 µg/mL (≈ 1220 µM), the MIC (Pseudomonas aeruginosa [8]) was 512 µg/mL (≈ 1220 µM) and the inhibition (Pseudomonas aeruginosa [9]) was “Active”. The Activity (Pseudomonas aeruginosa [10]) was “Active”, the Activity (Pseudomonas aeruginosa [11]) was over 2 log10CFU/ml and the MIC (Pseudomonas aeruginosa [12]) was 512 µg/mL (≈ 1220 µM). The MIC (Pseudomonas aeruginosa [13]) was 512 µg/mL (≈ 1220 µM), the MIC (Pseudomonas aeruginosa [14]) was 64 µg/mL and the MIC (Pseudomonas aeruginosa [15]) was 2 µg/mL. It also gave an MIC (Pseudomonas aeruginosa [16]) of 4 µg/mL, an MIC (Pseudomonas aeruginosa [17]) of 512 µg/mL (≈ 1220 µM) and an MIC (Pseudomonas aeruginosa [18]) of 8 µg/mL. It also gave an MIC (Pseudomonas aeruginosa [19]) of 16 µg/mL, an MIC (Pseudomonas aeruginosa [20]) of 2 µg/mL and an MIC (Pseudomonas aeruginosa [21]) of 2 µg/mL. It also gave an MIC (Pseudomonas aeruginosa [22]) of 512 µg/mL (≈ 1220 µM), an MIC (Pseudomonas aeruginosa [23]) of 2 µg/mL and an MIC (Pseudomonas aeruginosa [24]) of 8 µg/mL. It also gave an MIC (Pseudomonas aeruginosa [25]) of 4 µg/mL, an MIC (Pseudomonas aeruginosa [26]) of 16 µg/mL and an MIC (Pseudomonas aeruginosa [27]) of 4 µg/mL. It also gave an MIC (Pseudomonas aeruginosa [28]) of 2 µg/mL and an MIC (Pseudomonas aeruginosa [29]) of 512 µg/mL (≈ 1220 µM).
